Key:
HT-29 [1] = test: Cytotoxicity against human HT-29 cells after 72 hrs under hypoxia conditions by SRB assay; type: functional, cell-based; conditions: HT-29, 72 h
[2] = biological target: Epidermal growth factor receptor (Homo sapiens, UniProt P00533); test: Inhibition of wild type EGFR (unknown origin) by Z'-Lyte kinase assay
HT-29 [3] = test: Cytotoxicity against human HT-29 cells after 72 hrs under normoxia conditions by SRB assay; type: functional, cell-based; conditions: HT-29, 72 h
[4] = Reductive drug activation assessed as reactive radical formation at 4.1 umol in pH 7.4 PBS in presence of zinc dust and ammonium chloride by HPLC-Q-ToF-MS method; conditions: buffer
[5] = Metabolic stability in mouse liver microsomes assessed as compound remaining at 5 uM after 30 mins under normoxia conditions in presence of NADPH by HPLC method; type: ADME; conditions: read-out: Stability
[6] = Metabolic stability in mouse liver microsomes assessed as compound remaining at 5 uM after 30 mins under hypoxia conditions in presence of NADPH by HPLC method; type: ADME; conditions: read-out: Stability

Chain of Epidermal growth factor receptor (P00533 whole entry): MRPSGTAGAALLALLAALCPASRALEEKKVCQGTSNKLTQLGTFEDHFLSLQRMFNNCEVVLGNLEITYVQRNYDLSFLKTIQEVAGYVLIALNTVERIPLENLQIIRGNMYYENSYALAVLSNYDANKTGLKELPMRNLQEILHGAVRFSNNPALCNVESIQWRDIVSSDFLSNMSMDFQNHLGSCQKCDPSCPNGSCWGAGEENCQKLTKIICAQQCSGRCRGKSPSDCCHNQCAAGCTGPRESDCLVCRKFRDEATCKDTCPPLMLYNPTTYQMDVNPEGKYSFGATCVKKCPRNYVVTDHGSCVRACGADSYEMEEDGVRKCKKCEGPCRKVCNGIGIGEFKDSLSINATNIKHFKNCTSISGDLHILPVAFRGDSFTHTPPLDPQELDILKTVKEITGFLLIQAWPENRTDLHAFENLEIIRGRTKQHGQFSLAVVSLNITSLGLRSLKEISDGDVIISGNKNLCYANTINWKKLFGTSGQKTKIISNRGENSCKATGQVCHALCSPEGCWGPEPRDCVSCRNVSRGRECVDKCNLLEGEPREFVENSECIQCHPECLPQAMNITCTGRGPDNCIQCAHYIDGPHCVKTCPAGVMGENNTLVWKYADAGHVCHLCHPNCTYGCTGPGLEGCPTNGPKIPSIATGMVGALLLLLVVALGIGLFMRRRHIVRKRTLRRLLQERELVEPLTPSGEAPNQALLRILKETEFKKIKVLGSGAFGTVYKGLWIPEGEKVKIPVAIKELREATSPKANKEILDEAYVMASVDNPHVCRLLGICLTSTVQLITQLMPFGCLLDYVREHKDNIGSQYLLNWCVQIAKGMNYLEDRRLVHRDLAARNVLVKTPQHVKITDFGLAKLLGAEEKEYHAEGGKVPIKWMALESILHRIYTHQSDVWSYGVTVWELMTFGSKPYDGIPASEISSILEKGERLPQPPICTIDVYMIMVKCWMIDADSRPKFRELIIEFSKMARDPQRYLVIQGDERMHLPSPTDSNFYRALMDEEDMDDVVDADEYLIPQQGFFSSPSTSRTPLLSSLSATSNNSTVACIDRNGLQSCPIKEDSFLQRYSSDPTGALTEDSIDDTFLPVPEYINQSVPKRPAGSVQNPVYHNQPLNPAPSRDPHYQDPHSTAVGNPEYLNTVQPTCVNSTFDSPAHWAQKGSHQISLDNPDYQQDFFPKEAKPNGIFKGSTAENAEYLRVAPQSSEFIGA

| IC50 [2] | Drug metabolism [4] | remaining at 0.5 h, 5 µM [5] | remaining at 0.5 h, 5 µM [6] | SMILES | IC50 (HT-29 [1]) | IC50 (HT-29 [3]) |
| --- | --- | --- | --- | --- | --- | --- |
| 0.00066 µM | – | – | – | COc1cc2ncnc(Nc3cccc(Br)c3)c2cc1OCCCn1ccnc1[N+](=O)[O-] | 4.01 µM | 4.48 µM |
| 0.0285 µM | – | – | – | COc1cc2ncnc(Nc3ccc(OCc4cccc(F)c4)c(Cl)c3)c2cc1OCCCCn1ccnc1[N+](=O)[O-] | 2.07 µM | 1.87 µM |
| 0.00047 µM | metabolite_detected | 70% | < 10% | COc1cc2ncnc(Nc3ccc(F)c(Cl)c3)c2cc1OCCCCn1ccnc1[N+](=O)[O-] | 1.62 µM | 2.21 µM |
| 0.00118 µM | – | – | – | COc1cc2ncnc(Nc3cccc(Br)c3)c2cc1OCCCn1c([N+](=O)[O-])cnc1C | 5.41 µM | 15.7 µM |
| 0.0512 µM | – | – | – | COc1cc2ncnc(Nc3ccc(OCc4cccc(F)c4)c(Cl)c3)c2cc1OCCCCCn1ccnc1[N+](=O)[O-] | 1.36 µM | 3.09 µM |
| 0.00089 µM | – | – | – | COc1cc2ncnc(Nc3ccc(F)c(Cl)c3)c2cc1OCCCn1ccnc1[N+](=O)[O-] | 7.17 µM | 8.39 µM |
| 0.0151 µM | – | – | – | COc1cc2ncnc(Nc3ccc(OCc4cccc(F)c4)c(Cl)c3)c2cc1OCCCCCCn1ccnc1[N+](=O)[O-] | 24.3 µM | > 50 µM |
| 0.0383 µM | – | – | – | COc1cc2ncnc(Nc3ccc(OCc4cccc(F)c4)c(Cl)c3)c2cc1OCCCn1ccnc1[N+](=O)[O-] | 20 µM | 15.5 µM |
| 0.0049 µM | – | – | – | COc1cc2ncnc(Nc3ccc(F)c(Cl)c3)c2cc1OCCn1c([N+](=O)[O-])cnc1C | > 50 µM | > 50 µM |
| 0.00108 µM | – | – | – | C#Cc1cccc(Nc2ncnc3cc(OC)c(OCCCn4ccnc4[N+](=O)[O-])cc23)c1 | 5.53 µM | 5.55 µM |

Second part, the compound before the results:

| SMILES | IC50 [2] | Drug metabolism [4] | remaining at 0.5 h, 5 µM [5] | remaining at 0.5 h, 5 µM [6] | IC50 (HT-29 [1]) | IC50 (HT-29 [3]) |
| --- | --- | --- | --- | --- | --- | --- |
| C#Cc1cccc(Nc2ncnc3cc(OC)c(OCCCCCn4ccnc4[N+](=O)[O-])cc23)c1 | 0.00049 µM | – | – | – | 3.05 µM | 3.55 µM |
| C#Cc1cccc(Nc2ncnc3cc(OC)c(OCCCCCCn4ccnc4[N+](=O)[O-])cc23)c1 | 0.0005 µM | – | – | – | 3.46 µM | 2.93 µM |
| COc1cc2ncnc(Nc3ccc(F)c(Cl)c3)c2cc1OCCn1ccnc1[N+](=O)[O-] | 0.00305 µM | – | – | – | 10 µM | > 50 µM |
| COc1cc2ncnc(Nc3ccc(F)c(Cl)c3)c2cc1OCCCCCCn1ccnc1[N+](=O)[O-] | – | – | – | – | 9.81 µM | 12.9 µM |
| Nc1n[n+]([O-])c2ccccc2[n+]1[O-] [TIRAPAZAMINE] | – | – | – | – | 9.45 µM | > 50 µM |
| C#Cc1cccc(Nc2ncnc3cc(OC)c(OCCCCn4ccnc4[N+](=O)[O-])cc23)c1 | 0.00056 µM | – | – | – | 6.9 µM | 10.1 µM |
| COc1cc2ncnc(Nc3ccc(F)c(Cl)c3)c2cc1OCCCn1c([N+](=O)[O-])cnc1C | 0.00343 µM | – | – | – | 11.5 µM | 23.2 µM |
| COc1cc2ncnc(Nc3ccc(F)c(Cl)c3)c2cc1OCCCCn1c([N+](=O)[O-])cnc1C | 0.00053 µM | – | – | – | 9.98 µM | 8.21 µM |
| COc1cc2ncnc(Nc3ccc(F)c(Cl)c3)c2cc1OCCCCCn1ccnc1[N+](=O)[O-] | 0.00051 µM | – | – | – | 5.59 µM | 17.6 µM |
| COc1cc2ncnc(Nc3ccc(F)c(Cl)c3)c2cc1OCCCN1CCOCC1 [GEFITINIB] | – | – | > 90% | > 90% | – | – |
